Data reported in article PMC9000336, “Development of Bicyclo[3.1.0]hexane-Based A3 Receptor Ligands: Closing the Gaps in the Structure–Affinity Relationships” (Molecules, 2022).

What was measured:
P1 receptor = P1 receptor binding studies (A1, A2A, A2B and A3), overall statement; parameters: species or system human; conditions: all four subtypes
Protocol: A1 Receptor: Membrane aliquots containing 5 µg (CHOhA1R) protein were incubated in a total volume of 100 µL assay buffer (50 mM Tris-HCl, pH 7.4) at 25 °C for 1 h. […] Nonspecific binding was determined in the presence of 100 µM N^6-cyclopentyladenosine (CPA). Incubations were terminated by rapid vacuum filtration to separate the bound and free radioligand through prewetted 96-well GF/B filter plates using a PerkinElmer Filtermate-harvester (Perkin Elmer, Groningen, the Netherlands). Filters were subsequently washed 12 times with ice-cold 50 mM Tris-HCl, pH 7.4.
Nonspecific binding was determined in the presence of 100 µM adenosine-5-N-ethyluronamide (NECA). Incubations were terminated by rapid vacuum filtration to separate the bound and free radioligand through prewetted 96-well GF/B filter plates using a PerkinElmer Filtermate-harvester (Perkin Elmer, Groningen, The Netherlands). Filters were subsequently washed 12 times with ice-cold 50 mM Tris-HCl, pH 7.4.
A2B Receptor: Membrane aliquots containing 30 µg (CHO-spap-hA2BR) total protein were incubated in a total volume of 100 µL assay buffer (0.1% CHAPS in 50 mM TrisHCl, pH 7.4) at 25 °C for 2 h. […] Nonspecific binding was determined in the presence of 10 µM ZM241385. Incubations were terminated by rapid vacuum filtration to separate the bound and free radioligand through prewetted 96-well GF/B filter plates using a PerkinElmer Filtermate-harvester (Perkin Elmer, Groningen, the Netherlands). Filters were subsequently washed 12 times with ice-cold 0.1% BSA in 50 mM Tris-HCl, pH 7.4.
A3 Receptor: Membrane aliquots containing 15 µg (CHOhA3R) total protein were incubated in a total volume of 100 µL assay buffer (50 mM Tris-HCl, pH 8.0, supplemented with 10 mM MgCl2, 1 mM EDTA and 0.01% (w/v) CHAPS) at 25 °C for 2 h. […] Nonspecific binding was determined in the presence of 100 µM NECA. […]
All experimental data were analyzed using the non-linear regression curve fitting program GraphPad Prism 7.0 (GraphPad Software Inc., San Diego, CA, USA). […]

[1] = biological target: T1, human adenosine A3 receptor (Homo sapiens, UniProt P0DMS8); assay: Radioligand displacement assay, human adenosine A3 receptor ([3H]PSB11, CHOhA3R membranes); assay type: binding; conditions: n = 3; for inhibition at 10 µM: test compound 10 µM
T1 construct: expressed in transfected cells; host or cells: CHO cells (CHOhA3R), gift of Dr. K.-N. Klotz (University of Würzburg); membrane preparation
T1 sequence (P0DMS8 1-318): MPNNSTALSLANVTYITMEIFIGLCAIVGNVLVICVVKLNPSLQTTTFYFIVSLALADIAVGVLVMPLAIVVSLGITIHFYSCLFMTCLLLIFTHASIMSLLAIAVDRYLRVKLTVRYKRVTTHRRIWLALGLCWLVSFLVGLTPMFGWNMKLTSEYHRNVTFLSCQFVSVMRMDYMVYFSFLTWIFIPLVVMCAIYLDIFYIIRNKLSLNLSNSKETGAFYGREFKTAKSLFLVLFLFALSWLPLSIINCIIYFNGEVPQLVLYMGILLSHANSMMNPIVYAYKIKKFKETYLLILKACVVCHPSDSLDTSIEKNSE
Protocol: Chinese hamster ovary (CHO) cells stably expressing the human adenosine A1 receptor (CHOhA1R) were kindly provided by Prof. S. J. Hill and CHO cells stably expressing the human adenosine A3 receptor (CHOhA3R) were a gift from Dr. K.-N. Klotz (University of Würzburg, Germany). Chinese hamster ovary cells stably expressing the human A1-receptor (CHOhA1R) or the human A3-receptor (CHOhA3R) were grown in Dulbecco’s Modified Eagle’s Medium (DMEM) and Ham’s F12 medium (1:1) supplemented with 10% (v/v) newborn calf serum, 50 µg/mL streptomycin, 50 IU/mL penicillin, and 200 µg/mL G418 at 37 °C and 5% CO2. […] All cells were grown to 80–90% confluency and detached from plates by scraping them into 5 mL phosphate-buffered saline. Detached cells were collected and centrifuged at 200 g for 5 min. Pellets derived from 100 15 cm Ø plates were pooled and resuspended in 70 mL of ice-cold 50 mM tris(hydroxymethyl)aminomethane (Tris)-HCl buffer, pH 7.4. A Heidolph Diax 900 homogenizer was used to homogenize the cell suspension. Membranes and the cytosolic fraction were separated by centrifugation at 100,000 g in a Beckman Optima LE-80 K ultracentrifuge (Beckman Coulter, Fullerton, CA, USA) at 4 °C for 20 min. The pellet was resuspended in 35 mL of the Tris-HCl buffer, and the homogenization and centrifugation steps were repeated. Tris-HCl buffer (25 mL) was used to resuspend the pellet, and adenosine deaminase (ADA) was added (0.8 U/mL) to break down endogenous adenosine. Membranes were stored in 250 µL and 500 µL aliquots at −80 °C. Total protein concentrations were measured using the bicinchoninic acid (BCA) method.
A3 Receptor: Membrane aliquots containing 15 µg (CHOhA3R) total protein were incubated in a total volume of 100 µL assay buffer (50 mM Tris-HCl, pH 8.0, supplemented with 10 mM MgCl2, 1 mM EDTA and 0.01% (w/v) CHAPS) at 25 °C for 2 h. Radioligand displacement experiments were performed using six concentrations of competing ligand in the presence of 10 nM [^3H]8-ethyl-4-methyl-2-phenyl-(8R)-4,5,7,8-tetrahydro-1H-imidazo[2.1-i]purin-5-one ([^3H]PSB11). […] Nonspecific binding was determined in the presence of 100 µM NECA. Incubations were terminated by rapid vacuum filtration to separate the bound and free radioligand through prewetted 96-well GF/B filter plates using a PerkinElmer Filtermate-harvester (Perkin Elmer, Groningen, The Netherlands). Filters were subsequently washed 12 times with ice-cold 50 mM Tris-HCl supplemented with 10 mM MgCl2, and 1 mM EDTA, pH 8.0 for CHOhA3R.
The plates of all four adenosine receptor assays were dried at 55 °C after which MicroscintTM-20-cocktail was added (Perkin Elmer, Groningen, The Netherlands).
All experimental data were analyzed using the non-linear regression curve fitting program GraphPad Prism 7.0 (GraphPad Software Inc., San Diego, CA, USA). IC50 values obtained from competition displacement binding data were converted into Ki values using the Cheng–Prusoff equation.

Nc1cc(Cl)c2ncn([C@H]3[C@H](O)[C@H](O)[C@]4(CO)C[C@H]34)c2n1 [Compound 11, (1R,2R,3S,4R,5S)-4-(5-Amino-7-chloro-3H-imidazo[4,5-b]pyridin-3-yl)-1-(hydroxymethyl)bicyclo[3.1.0]hexane-2,3-diol]
P1 receptor affinity (P1 receptor): no P1 receptor affinity
inhibition at 10 µM [1]: 4%

OC[C@@]12C[C@@H]1[C@@H](n1cnc3c(Cl)cc(Cl)nc31)[C@H](O)[C@@H]2O [Compound 12, (1R,2R,3S,4R,5S)-4-(5,7-Dichloro-3H-imidazo[4,5-b]pyridin-3-yl)-1-(hydroxymethyl)bicyclo[3.1.0]hexane-2,3-diol]
P1 receptor affinity (P1 receptor): no P1 receptor affinity
Ki ([1]; [3H]PSB11, read-out: A3 Ki ± SEM): > 10 µM

CSc1cc(N)c2ncn([C@H]3[C@H](O)[C@H](O)[C@]4(CO)C[C@H]34)c2n1 [Compound 17, (1R,2R,3S,4R,5S)-4-(7-Amino-5-methylthio-3H-imidazo[4,5-b]pyridin-3-yl)-1-(hydroxymethyl)bicyclo[3.1.0]hexane-2,3-diol]
P1 receptor affinity (P1 receptor): loss of P1 receptor affinity
inhibition at 10 µM [1]: 45%
